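The compound was tested at five concentrations on cells cultured in 96-well plates, with a 48-hour exposure period. GI50 is the concentration that inhibits growth by half.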 The source made the active and inactive calls. Cut-off read from the data, not from the text of the source: active = GI50 up to about 1.1 µM and inactive = higher.
Columns and labels:
Experiment in all cases: NCI tumour cell line growth inhibition, 48 h
DMS-114 = system: DMS-114
LXFL 529 = system: LXFL 529
KM-20L2 = system: KM-20L2
M19-MEL = system: M19-MEL
SNB-78 = system: SNB-78
DMS-273 = system: DMS-273
HOP-18 = system: HOP-18
RXF 631 = system: RXF 631
XF498 = system: XF498

Cc1cccc(NC(=O)CC2C(=O)Nc3ccccc3S2(=O)=O)c1C (stereo not given)
GI50 (DMS-114): 20.3 µM (inactive)
GI50 (LXFL 529): 36.9 µM (inactive)
GI50 (KM-20L2): 39.4 µM (inactive)
GI50 (M19-MEL): 32.5 µM (inactive)
GI50 (SNB-78): 26.1 µM (inactive)
GI50 (DMS-273): 25.8 µM (inactive)
GI50 (HOP-18): 22.1 µM (inactive)

COCCCNC(=O)C1C(=O)N(CCCOC)C(=O)/C1=N\N (stereo not given)
GI50 (RXF 631): > 100 µM (inactive)
GI50 (DMS-114): > 100 µM (inactive)
GI50 (LXFL 529): > 100 µM (inactive)
GI50 (KM-20L2): > 100 µM (inactive)
GI50 (M19-MEL): > 100 µM (inactive)
GI50 (SNB-78): > 100 µM (inactive)
GI50 (DMS-273): > 100 µM (inactive)
GI50 (HOP-18): > 100 µM (inactive)

NCCCNCc1c2ccccc2c(CNCCCN)c2ccccc12
GI50 (DMS-114): 14.3 µM (inactive)
GI50 (LXFL 529): 11.4 µM (inactive)
GI50 (KM-20L2): 17.9 µM (inactive)
GI50 (M19-MEL): 14.7 µM (inactive)
GI50 (SNB-78): 22.5 µM (inactive)
GI50 (HOP-18): 25.1 µM (inactive)

Cn1c(=O)c(/N=N/c2c(=O)n(C)c(=O)n3c2[nH]c2ccccc23)c2[nH]c3ccccc3n2c1=O
GI50 (XF498): > 100 µM (inactive)
GI50 (RXF 631): 85.7 µM (inactive)
GI50 (DMS-114): 63 µM (inactive)
GI50 (LXFL 529): 20 µM (inactive)
GI50 (KM-20L2): > 100 µM (inactive)
GI50 (M19-MEL): > 100 µM (inactive)
GI50 (SNB-78): > 100 µM (inactive)
GI50 (DMS-273): > 100 µM (inactive)
GI50 (HOP-18): 24 µM (inactive)

COC(=O)c1c/c(=N\NC(=O)CC(=O)Nc2ccccc2Cl)c2ccccc2o1
GI50 (XF498): > 100 µM (inactive)
GI50 (RXF 631): > 100 µM (inactive)
GI50 (DMS-114): > 100 µM (inactive)
GI50 (LXFL 529): > 100 µM (inactive)
GI50 (KM-20L2): > 100 µM (inactive)
GI50 (SNB-78): > 100 µM (inactive)
GI50 (DMS-273): > 100 µM (inactive)

Cc1ccc(S(=O)(=O)NC(=O)NCCc2ccccc2)cc1
GI50 (XF498): > 100 µM (inactive)
GI50 (DMS-114): 62.1 µM (inactive)
GI50 (LXFL 529): > 100 µM (inactive)
GI50 (KM-20L2): > 100 µM (inactive)
GI50 (M19-MEL): > 100 µM (inactive)
GI50 (SNB-78): > 100 µM (inactive)
GI50 (HOP-18): > 100 µM (inactive)

OCC(O)C(O)C(O)C(O)c1nnn[nH]1 (stereo not given)
GI50 (XF498): > 100 µM (inactive)
GI50 (DMS-114): > 100 µM (inactive)
GI50 (LXFL 529): > 100 µM (inactive)
GI50 (M19-MEL): > 100 µM (inactive)
GI50 (SNB-78): > 100 µM (inactive)
GI50 (DMS-273): > 100 µM (inactive)

O=C(CSc1nnc(-c2ccc(/N=C\c3ccc(Cl)cc3)cc2)o1)Nc1ccc(Cl)cc1Cl
GI50 (XF498): 17.7 µM (inactive)
GI50 (LXFL 529): 22.4 µM (inactive)
GI50 (KM-20L2): 37.2 µM (inactive)
GI50 (M19-MEL): 31.7 µM (inactive)
GI50 (SNB-78): > 100 µM (inactive)
GI50 (DMS-273): 34.3 µM (inactive)
GI50 (HOP-18): 11.6 µM (inactive)

Cc1nc(N2N=C(c3ccc(Cl)cc3)CCC2=O)sc1[N+](=O)[O-]
GI50 (XF498): > 100 µM (inactive)
GI50 (DMS-114): > 100 µM (inactive)
GI50 (LXFL 529): > 100 µM (inactive)
GI50 (KM-20L2): > 100 µM (inactive)
GI50 (M19-MEL): > 100 µM (inactive)
GI50 (SNB-78): > 100 µM (inactive)
GI50 (DMS-273): > 100 µM (inactive)
GI50 (HOP-18): > 100 µM (inactive)

COc1cc(Br)c(/C=N\c2cccc3ccc(OS(=O)(=O)c4ccc([N+](=O)[O-])cc4)cc23)cc1OC
GI50 (DMS-114): > 100 µM (inactive)
GI50 (LXFL 529): 12.2 µM (inactive)
GI50 (M19-MEL): > 100 µM (inactive)
GI50 (SNB-78): 34.2 µM (inactive)

COC(=O)C1=C(C[S+]([O-])c2ccc([N+](=O)[O-])cc2[N+](=O)[O-])ON(C)C1c1ccccc1 (stereo not given)
GI50 (XF498): 37.3 µM (inactive)
GI50 (RXF 631): 99.5 µM (inactive)
GI50 (DMS-114): 27.7 µM (inactive)
GI50 (LXFL 529): 30.1 µM (inactive)
GI50 (KM-20L2): 27.8 µM (inactive)
GI50 (M19-MEL): 34.3 µM (inactive)
GI50 (SNB-78): 33.9 µM (inactive)
GI50 (DMS-273): 36.2 µM (inactive)
GI50 (HOP-18): 22.6 µM (inactive)

Cc1ccc(NC(=O)c2cc3cc(/N=N/c4ccccc4C(=O)O)ccc3oc2=O)cc1
GI50 (XF498): 33 µM (inactive)
GI50 (DMS-114): 24 µM (inactive)
GI50 (KM-20L2): 36 µM (inactive)
GI50 (DMS-273): 37.4 µM (inactive)
GI50 (HOP-18): 32 µM (inactive)

N#Cc1ccccc1/C=N/O
GI50 (XF498): > 100 µM (inactive)
GI50 (DMS-114): > 59.4 µM (inactive)
GI50 (LXFL 529): > 91.4 µM (inactive)
GI50 (KM-20L2): > 100 µM (inactive)
GI50 (M19-MEL): > 100 µM (inactive)
GI50 (SNB-78): > 100 µM (inactive)
GI50 (DMS-273): > 41.4 µM (inactive)
GI50 (HOP-18): > 100 µM (inactive)

CCCCCCCCCCCCCCCC(=O)OCC1OC(n2cc(F)c(=O)[nH]c2=O)C(N)C(O)C1O (stereo not given)
GI50 (XF498): 18.9 µM (inactive)
GI50 (DMS-114): 18.8 µM (inactive)
GI50 (LXFL 529): 18.9 µM (inactive)
GI50 (KM-20L2): 17.2 µM (inactive)
GI50 (M19-MEL): 18.7 µM (inactive)
GI50 (HOP-18): 16.3 µM (inactive)

O=C(Nc1cccc(C(F)(F)F)c1)C(=O)C1NC(=S)NC1=O (stereo not given)
GI50 (DMS-114): > 100 µM (inactive)
GI50 (LXFL 529): > 100 µM (inactive)
GI50 (KM-20L2): > 100 µM (inactive)
GI50 (M19-MEL): > 100 µM (inactive)
GI50 (SNB-78): > 100 µM (inactive)
GI50 (DMS-273): > 100 µM (inactive)
GI50 (HOP-18): > 100 µM (inactive)

CCN1C[C@]2(C)CC[C@H](O)C34C1C(C[C@@H]32)[C@@]1(O)CC[C@H]2C[C@@H]4[C@@H]1[C@H]2O
GI50 (DMS-114): > 100 µM (inactive)
GI50 (LXFL 529): > 100 µM (inactive)
GI50 (KM-20L2): > 100 µM (inactive)
GI50 (M19-MEL): > 100 µM (inactive)
GI50 (SNB-78): 88.7 µM (inactive)
GI50 (DMS-273): > 100 µM (inactive)
GI50 (HOP-18): > 100 µM (inactive)

COc1cc2c(cc1OC)C(Cc1cc(Br)c(OC)c(OC)c1)=[N+](C)CC2
GI50 (DMS-114): 2.52 µM (inactive)
GI50 (LXFL 529): 9.73 µM (inactive)
GI50 (KM-20L2): 39.2 µM (inactive)
GI50 (M19-MEL): 56.1 µM (inactive)
GI50 (SNB-78): 92.5 µM (inactive)
GI50 (HOP-18): > 100 µM (inactive)

CC(O)C(C(=O)O)N(CC1(O)OCC(O)C(O)C1O)N=O (stereo not given)
GI50 (XF498): > 100 µM (inactive)
GI50 (RXF 631): > 100 µM (inactive)
GI50 (DMS-114): > 100 µM (inactive)
GI50 (LXFL 529): > 100 µM (inactive)
GI50 (KM-20L2): > 100 µM (inactive)
GI50 (M19-MEL): > 100 µM (inactive)
GI50 (SNB-78): > 100 µM (inactive)
GI50 (DMS-273): > 100 µM (inactive)

Brc1ccccc1C1SCc2nc3ccccc3n21 (stereo not given)
GI50 (DMS-114): 16 µM (inactive)
GI50 (LXFL 529): 15.1 µM (inactive)
GI50 (M19-MEL): 15 µM (inactive)
GI50 (SNB-78): 26.4 µM (inactive)
GI50 (HOP-18): < 0.01 µM (active)

O=C(OCc1ccccc1C1CSCSC1)c1cc(C(=O)OCc2ccccc2C2CSCSC2)c(C(=O)OCc2ccccc2C2CSCSC2)cc1C(=O)OCc1ccccc1C1CSCSC1
GI50 (DMS-114): > 100 µM (inactive)
GI50 (LXFL 529): > 100 µM (inactive)
GI50 (KM-20L2): > 100 µM (inactive)
GI50 (M19-MEL): > 100 µM (inactive)
GI50 (SNB-78): 78.9 µM (inactive)
GI50 (DMS-273): > 100 µM (inactive)
GI50 (HOP-18): > 100 µM (inactive)

O=c1[nH]c(-c2ccccc2)nc2ccc(Cl)cc12
GI50 (DMS-114): > 100 µM (inactive)
GI50 (LXFL 529): 29.4 µM (inactive)
GI50 (KM-20L2): 29.2 µM (inactive)
GI50 (M19-MEL): 54.3 µM (inactive)
GI50 (SNB-78): 93.8 µM (inactive)
GI50 (DMS-273): 45.9 µM (inactive)

CCCCCCCCC(=O)N(C)C1C2CN3CCC(O2)C13 (stereo not given)
GI50 (DMS-114): > 100 µM (inactive)
GI50 (LXFL 529): > 100 µM (inactive)
GI50 (KM-20L2): > 100 µM (inactive)
GI50 (M19-MEL): > 100 µM (inactive)
GI50 (SNB-78): > 100 µM (inactive)
GI50 (DMS-273): > 100 µM (inactive)
GI50 (HOP-18): > 100 µM (inactive)

C#CCNC(=O)N(CC#C)N=O
GI50 (XF498): > 100 µM (inactive)
GI50 (DMS-114): > 100 µM (inactive)
GI50 (LXFL 529): > 100 µM (inactive)
GI50 (KM-20L2): > 100 µM (inactive)
GI50 (M19-MEL): > 100 µM (inactive)
GI50 (SNB-78): > 100 µM (inactive)
GI50 (DMS-273): > 100 µM (inactive)
GI50 (HOP-18): > 100 µM (inactive)

C[C@]12C=CC(=O)C=C1[C@@H](F)C[C@H]1[C@@H]3CC[C@](O)(C(=O)CO)[C@@]3(C)C[C@H](O)[C@@]12F
GI50 (XF498): 97.7 µM (inactive)
GI50 (DMS-114): > 100 µM (inactive)
GI50 (LXFL 529): > 100 µM (inactive)
GI50 (KM-20L2): > 100 µM (inactive)
GI50 (M19-MEL): > 100 µM (inactive)
GI50 (SNB-78): > 84.1 µM (inactive)
GI50 (DMS-273): > 100 µM (inactive)

From ChEMBL document CHEMBL1201862, “PubChem BioAssay data set” (2004)
